Results taken from ChEMBL document CHEMBL1201862, “PubChem BioAssay data set” (2004).
Activity calls are given as the source filed them.

Legend:
Assay type in all cases: functional
[1] = biological target: T1, Replicative DNA helicase DnaB (Mycobacterium tuberculosis, UniProt P9WMR3); test: DnaB intein splicing inhibitors, dose response, biochemical, cell-free fluorescence (AID 449749)
T1 sequence (P9WMR3 whole entry): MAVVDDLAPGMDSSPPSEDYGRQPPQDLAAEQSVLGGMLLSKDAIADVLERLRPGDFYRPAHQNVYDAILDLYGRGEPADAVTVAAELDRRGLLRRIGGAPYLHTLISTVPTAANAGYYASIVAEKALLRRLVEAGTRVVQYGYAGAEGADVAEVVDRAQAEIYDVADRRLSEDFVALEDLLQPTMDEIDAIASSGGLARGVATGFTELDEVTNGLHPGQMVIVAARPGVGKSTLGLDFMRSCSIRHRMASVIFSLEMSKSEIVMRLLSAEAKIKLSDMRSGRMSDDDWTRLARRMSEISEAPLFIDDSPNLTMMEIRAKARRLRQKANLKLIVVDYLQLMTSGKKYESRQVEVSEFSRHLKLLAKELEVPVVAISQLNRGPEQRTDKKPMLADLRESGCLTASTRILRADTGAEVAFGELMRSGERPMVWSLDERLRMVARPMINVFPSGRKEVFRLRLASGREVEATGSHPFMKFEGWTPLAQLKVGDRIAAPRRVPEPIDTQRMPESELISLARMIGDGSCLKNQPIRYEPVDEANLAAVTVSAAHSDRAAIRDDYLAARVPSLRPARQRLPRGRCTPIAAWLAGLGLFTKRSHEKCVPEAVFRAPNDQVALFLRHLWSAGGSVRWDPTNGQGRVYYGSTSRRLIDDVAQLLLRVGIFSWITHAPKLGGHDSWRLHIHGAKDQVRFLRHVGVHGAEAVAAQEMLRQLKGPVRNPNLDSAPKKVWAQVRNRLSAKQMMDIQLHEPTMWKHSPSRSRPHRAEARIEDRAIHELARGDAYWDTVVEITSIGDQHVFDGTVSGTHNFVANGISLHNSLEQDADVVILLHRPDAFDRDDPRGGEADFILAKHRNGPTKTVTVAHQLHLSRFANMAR

[2] = biological target: T2, Protein RecA (Mycobacterium tuberculosis, UniProt P9WHJ3); test: Fluorescence Cell-Free Homogeneous Dose Retest to Identify Inhibitors of RecA-Intein Splicing Activity. [Related pubchem assays (depositor defined):AID2097, AID2223, AID489010, AID492950]
T2 sequence (P9WHJ3 whole entry): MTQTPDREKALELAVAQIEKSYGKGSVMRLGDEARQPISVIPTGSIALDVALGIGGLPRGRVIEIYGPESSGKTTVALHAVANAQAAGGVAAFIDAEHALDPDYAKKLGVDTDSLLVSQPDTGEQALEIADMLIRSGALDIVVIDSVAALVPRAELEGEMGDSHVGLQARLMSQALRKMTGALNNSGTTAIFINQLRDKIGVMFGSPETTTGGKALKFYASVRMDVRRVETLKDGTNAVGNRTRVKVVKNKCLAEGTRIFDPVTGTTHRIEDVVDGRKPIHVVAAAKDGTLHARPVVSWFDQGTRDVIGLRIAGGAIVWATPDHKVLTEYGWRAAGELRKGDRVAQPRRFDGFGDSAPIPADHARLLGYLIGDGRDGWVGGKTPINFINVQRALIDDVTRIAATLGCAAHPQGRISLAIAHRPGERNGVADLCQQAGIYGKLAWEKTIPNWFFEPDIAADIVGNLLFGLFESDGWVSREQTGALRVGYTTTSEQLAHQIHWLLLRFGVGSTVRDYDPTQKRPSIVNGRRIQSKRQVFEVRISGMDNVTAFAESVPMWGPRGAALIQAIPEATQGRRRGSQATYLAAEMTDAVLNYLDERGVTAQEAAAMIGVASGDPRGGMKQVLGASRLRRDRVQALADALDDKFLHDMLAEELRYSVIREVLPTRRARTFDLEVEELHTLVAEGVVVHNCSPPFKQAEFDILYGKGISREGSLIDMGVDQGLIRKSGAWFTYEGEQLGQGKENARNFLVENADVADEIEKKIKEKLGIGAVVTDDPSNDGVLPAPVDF

[3] = biological target: T3, Sentrin-specific protease 7 (Homo sapiens, UniProt Q9BQF6);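 note: Luminescence-based dose-response confirmation of ultra-high-throughput screening hits, measuring inhibition of SENP7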
T3 sequence (Q9BQF6 whole entry): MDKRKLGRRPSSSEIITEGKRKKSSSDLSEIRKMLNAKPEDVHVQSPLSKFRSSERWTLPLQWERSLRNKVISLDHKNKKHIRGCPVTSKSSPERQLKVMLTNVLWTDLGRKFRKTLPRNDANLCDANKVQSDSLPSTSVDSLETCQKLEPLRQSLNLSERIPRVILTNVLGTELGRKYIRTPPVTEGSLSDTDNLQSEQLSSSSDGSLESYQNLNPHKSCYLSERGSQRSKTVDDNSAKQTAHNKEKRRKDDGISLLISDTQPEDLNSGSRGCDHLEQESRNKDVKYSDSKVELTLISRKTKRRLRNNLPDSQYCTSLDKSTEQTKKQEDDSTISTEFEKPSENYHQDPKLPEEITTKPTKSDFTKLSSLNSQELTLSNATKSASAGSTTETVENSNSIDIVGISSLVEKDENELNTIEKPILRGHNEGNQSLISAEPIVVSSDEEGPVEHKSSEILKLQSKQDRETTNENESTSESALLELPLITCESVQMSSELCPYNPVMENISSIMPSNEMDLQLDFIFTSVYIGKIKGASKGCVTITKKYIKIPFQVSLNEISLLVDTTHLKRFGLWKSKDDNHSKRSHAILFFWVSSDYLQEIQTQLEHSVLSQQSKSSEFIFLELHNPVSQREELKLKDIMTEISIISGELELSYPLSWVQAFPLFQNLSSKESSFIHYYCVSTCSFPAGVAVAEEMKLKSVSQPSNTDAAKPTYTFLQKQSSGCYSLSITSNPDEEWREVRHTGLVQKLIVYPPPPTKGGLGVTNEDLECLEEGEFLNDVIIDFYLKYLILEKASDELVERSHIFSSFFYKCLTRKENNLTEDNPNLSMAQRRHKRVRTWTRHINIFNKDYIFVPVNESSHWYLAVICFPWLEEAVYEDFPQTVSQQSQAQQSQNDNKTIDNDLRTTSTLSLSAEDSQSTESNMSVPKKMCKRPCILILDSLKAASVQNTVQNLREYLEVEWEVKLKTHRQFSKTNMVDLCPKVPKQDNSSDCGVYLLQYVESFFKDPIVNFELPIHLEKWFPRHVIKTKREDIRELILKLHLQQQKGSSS

[4] = biological target: T4, Caspase-3 (Homo sapiens, UniProt P42574);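 note: Dose-response selectivity test against caspase-3 for candidate inhibitors of sentrin-specific proteases (SENPs)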
T4 sequence (P42574 whole entry): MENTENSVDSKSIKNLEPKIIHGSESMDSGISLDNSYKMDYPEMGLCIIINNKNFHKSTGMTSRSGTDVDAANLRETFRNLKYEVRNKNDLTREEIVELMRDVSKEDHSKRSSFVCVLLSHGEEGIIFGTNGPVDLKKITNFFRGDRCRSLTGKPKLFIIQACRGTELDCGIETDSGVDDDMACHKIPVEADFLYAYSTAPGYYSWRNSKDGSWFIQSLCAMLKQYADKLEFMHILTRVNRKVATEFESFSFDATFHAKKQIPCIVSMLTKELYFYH

Row | Structure (SMILES) | AC50 [1] | EC50 [2] | IC50 [3] | IC50 [4]
1 | O=C(Nc1ccccc1)c1nnsc1[S+]([O-])c1ccc(Cl)cc1 (stereo not given) | 0.964 µM (active) | 5.92 µM (active) |  | 
2 | CC1OC(Nc2cccc3ccccc23)C(O)C(O)C1O (stereo not given) | > 380 µM (inactive) | 75.1 µM (active) | 7.53 µM (active) | 9.4 µM (active)
3 | O=C1C=C(Nc2ccccc2)c2ccccc2C1=O | 0.664 µM (active) | 0.723 µM (active) | 12.2 µM (active) | 18.6 µM (active)
